Measurements from patent publication US5591741A, “Fungicidal spiroheterocyclic derivatives” (American Cyanamid Company, priority 1993, dated 1997).

Columns and labels:
Leptosphaeria nodorum = assay: Activity against wheat leafspot (LN); format: in vivo; conditions: direct therapeutic foliar spray, 600 ppm, 6-8 days
How it was run: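 Wheat cv Norman at single-leaf stage spray-inoculated with 1.5×10^6 conidia/ml, held 24 h at high humidity, then sprayed therapeutically with test compound at 600 ppm. Kept 6-8 days at 22° C, 70% humidity; lesion density per leaf rated against untreated or diluent-sprayed controls.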

Phytophthora infestans = format: in vivo; conditions: tomato, direct protectant foliar spray
Venturia inaequalis = assay: Activity against apple scab in-vitro (VII); format: cell-based; conditions: 10 ppm, 10 days, 20° C., mycelial growth
How it was run: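 Compound in acetone was tested at 10 ppm final in half-strength Potato Dextrose Broth inoculated with V. inaequalis mycelial fragments and spores at 5×10^4 propagules/ml. After 10 days at 20° C, mycelial growth was rated against untreated or diluent controls.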

Botrytis cinerea = assay: Direct protectant activity against broad bean grey mould (BCB); format: in vivo; conditions: direct protectant foliar spray, 600 ppm, 4 days
How it was run: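 Broad bean plants (cv The Sutton, two leaf pairs) sprayed on upper leaf surfaces at 600 ppm, then inoculated 24 h later with 10^6 conidia/ml. Kept 4 days at 22 °C, high humidity; disease control rated from % leaf area with lesions against untreated or diluent controls.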

[1] = system: Pseudocercosporella herpotrichoides; assay: Activity against wheat eyespot in-vitro (PHI); format: cell-based; conditions: 10 ppm, 10 days, 20° C., mycelial growth
How it was run: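 P. herpotrichoides mycelial fragments (5×10^4/ml) grown in half-strength PDB with compound at 10 ppm final, added from acetone. Incubated 10 days at 20 °C; mycelial growth rated against untreated or diluent controls.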

Alternaria solani = assay: Activity against tomato early blight (AS); format: in vivo; conditions: Table VI; tomato seedlings, contact prophylactic foliar spray, 4 days
How it was run: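 Foliar contact prophylactic spray on tomato seedlings (cv Outdoor Girl, second true leaf expanded) in acetone/water 50:50 with 0.04% Tween 20; 24 h at 20° C, 40% R.H., then inoculation with 10^4 spores/ml A. solani conidia. Kept moist at 21° C; lesion cover rated 4 days post-inoculation against untreated or diluent-sprayed controls.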

[2] = system: Erysiphe graminis f.sp. hordei; assay: Activity against barley powdery mildew, direct therapeutic (EGT); format: in vivo; conditions: direct therapeutic foliar spray, 600 ppm, up to 7 days
How it was run: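 Barley seedlings (cv. Golden Promise, single-leaf stage) were dusted with mildew conidia one day before a therapeutic foliar spray of 600 ppm compound. Plants were kept at 18 °C and 40% humidity for up to 7 days, and sporulating leaf area was rated against untreated or diluent-sprayed controls.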

Pyricularia oryzae = format: in vivo; conditions: rice seedlings, direct therapeutic foliar spray, 600 ppm, 4-5 days
[3] = system: Erysiphe graminis f.sp. hordei; assay: Direct protectant activity against barley powdery mildew (EGP); format: in vivo; conditions: direct protectant foliar spray, 8 days
How it was run: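 Barley seedlings (cv Golden Promise, single-leaf stage) were foliar-sprayed, held 24 h at 18 °C/40% RH, then dusted with mildew conidia. After 8 days at 18 °C/40% RH, sporulating leaf area was scored as a rating against untreated or diluent-sprayed controls.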

Plasmopara viticola = assay: Antisporulant activity against vine downy mildew (PVA); format: in vivo; conditions: vine leaves, antisporulant foliar spray, 600 ppm, 750 l/ha
How it was run: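 Cabernet Sauvignon vines (~8 cm) inoculated on lower leaf surfaces with 5×10^4 zoosporangia/ml, held 24 h at 21° C high humidity then 24 h glasshouse. Infected leaves sprayed underside with 600 ppm compound in 1:1 water/acetone, 0.04% Tween 20, 750 l/ha; 96 h glasshouse, 24 h humidity. Sporulating leaf area rated versus control.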

Rhizoctonia solani = assay: Activity against Rhizoctonia in-vitro (RSI); format: cell-based; conditions: 10 ppm, 10 days, 20° C., mycelial growth
How it was run: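 R. solani mycelial fragments (5×10^4/ml) in half-strength Potato Dextrose Broth with compound added from acetone to 10 ppm final. Mycelial growth assessed after 10 days at 20° C, rated against untreated or diluent control.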

CCCCCN(C(C)C)C1COC2(CCC(C(C)(C)C)CC2)C1 (stereo not shown) [Compound 76]
disease control rating LN (Leptosphaeria nodorum): 0 (less than 50% disease control)
disease control rating PIP (Phytophthora infestans): 0 (less than 50% disease control)
disease control rating VII (Venturia inaequalis): 0 (less than 50% disease control)
disease control rating BCB (Botrytis cinerea): 0 (less than 50% disease control)
disease control rating PHI [1]: 0 (less than 50% disease control)
disease control rating AS (Alternaria solani): 0 (less than 50% disease control)
disease control rating EGT [2]: 2 (greater than 80% disease control)
disease control rating PO (Pyricularia oryzae): 0 (less than 50% disease control)
disease control rating EGP [3]: 2 (greater than 80% disease control)
disease control rating PVA (Plasmopara viticola): 0 (less than 50% disease control)
disease control rating RSI (Rhizoctonia solani): 0 (less than 50% disease control)

CCCCCN(C1CCCCC1)C1COC2(CCC(C(C)(C)C)CC2)C1 (stereo not shown) [Compound 77]
disease control rating LN (Leptosphaeria nodorum): 0 (less than 50% disease control)
disease control rating PIP (Phytophthora infestans): 0 (less than 50% disease control)
disease control rating VII (Venturia inaequalis): 0 (less than 50% disease control)
disease control rating BCB (Botrytis cinerea): 0 (less than 50% disease control)
disease control rating PHI [1]: 0 (less than 50% disease control)
disease control rating AS (Alternaria solani): 0 (less than 50% disease control)
disease control rating EGT [2]: 2 (greater than 80% disease control)
disease control rating PO (Pyricularia oryzae): 0 (less than 50% disease control)
disease control rating EGP [3]: 2 (greater than 80% disease control)
disease control rating PVA (Plasmopara viticola): 0 (less than 50% disease control)
disease control rating RSI (Rhizoctonia solani): 0 (less than 50% disease control)

CCCCCN(C)C1COC2(CCC(C(C)(C)C)CC2)C1 (stereo not shown) [Compound 78]
disease control rating LN (Leptosphaeria nodorum): 0 (less than 50% disease control)
disease control rating PIP (Phytophthora infestans): 0 (less than 50% disease control)
disease control rating VII (Venturia inaequalis): 0 (less than 50% disease control)
disease control rating BCB (Botrytis cinerea): 1 (about 50-80% disease control)
disease control rating PHI [1]: 0 (less than 50% disease control)
disease control rating AS (Alternaria solani): 0 (less than 50% disease control)
disease control rating EGT [2]: 2 (greater than 80% disease control)
disease control rating PO (Pyricularia oryzae): 0 (less than 50% disease control)
disease control rating EGP [3]: 2 (greater than 80% disease control)
disease control rating PVA (Plasmopara viticola): 0 (less than 50% disease control)
disease control rating RSI (Rhizoctonia solani): 0 (less than 50% disease control)

C=CCN(C1CCCCC1)C1COC2(CCC(C(C)(C)C)CC2)C1 (stereo not shown) [Compound 79]
disease control rating LN (Leptosphaeria nodorum): 0 (less than 50% disease control)
disease control rating PIP (Phytophthora infestans): 2 (greater than 80% disease control)
disease control rating VII (Venturia inaequalis): 0 (less than 50% disease control)
disease control rating BCB (Botrytis cinerea): 1 (about 50-80% disease control)
disease control rating PHI [1]: 0 (less than 50% disease control)
disease control rating AS (Alternaria solani): 0 (less than 50% disease control)
disease control rating EGT [2]: 2 (greater than 80% disease control)
disease control rating PO (Pyricularia oryzae): 0 (less than 50% disease control)
disease control rating EGP [3]: 2 (greater than 80% disease control)
disease control rating PVA (Plasmopara viticola): 0 (less than 50% disease control)
disease control rating RSI (Rhizoctonia solani): 0 (less than 50% disease control)

CN(C1CCCCC1)C1COC2(CCC(C(C)(C)C)CC2)C1 (stereo not shown) [Compound 80]
disease control rating LN (Leptosphaeria nodorum): 1 (about 50-80% disease control)
disease control rating PIP (Phytophthora infestans): 2 (greater than 80% disease control)
disease control rating VII (Venturia inaequalis): 0 (less than 50% disease control)
disease control rating BCB (Botrytis cinerea): 1 (about 50-80% disease control)
disease control rating PHI [1]: 0 (less than 50% disease control)
disease control rating AS (Alternaria solani): 0 (less than 50% disease control)
disease control rating EGT [2]: 2 (greater than 80% disease control)
disease control rating PO (Pyricularia oryzae): 1 (about 50-80% disease control)
disease control rating EGP [3]: 2 (greater than 80% disease control)
disease control rating PVA (Plasmopara viticola): 0 (less than 50% disease control)
disease control rating RSI (Rhizoctonia solani): 1 (about 50-80% disease control)

CC(C)(C)NC1COC2(CCC(C(C)(C)C)CC2)C1 (stereo not shown) [Compound 81]
disease control rating LN (Leptosphaeria nodorum): 0 (less than 50% disease control)
disease control rating PIP (Phytophthora infestans): 2 (greater than 80% disease control)
disease control rating VII (Venturia inaequalis): 0 (less than 50% disease control)
disease control rating BCB (Botrytis cinerea): 2 (greater than 80% disease control)
disease control rating PHI [1]: 0 (less than 50% disease control)
disease control rating AS (Alternaria solani): 0 (less than 50% disease control)
disease control rating EGT [2]: 2 (greater than 80% disease control)
disease control rating PO (Pyricularia oryzae): 0 (less than 50% disease control)
disease control rating EGP [3]: 2 (greater than 80% disease control)
disease control rating PVA (Plasmopara viticola): 0 (less than 50% disease control)
disease control rating RSI (Rhizoctonia solani): 0 (less than 50% disease control)

CC(C)(C)C1CCC2(CC1)CC(NCC1CCCCC1)CO2 (stereo not shown) [Compound 82]
disease control rating LN (Leptosphaeria nodorum): 1 (about 50-80% disease control)
disease control rating PIP (Phytophthora infestans): 0 (less than 50% disease control)
disease control rating VII (Venturia inaequalis): 0 (less than 50% disease control)
disease control rating BCB (Botrytis cinerea): 2 (greater than 80% disease control)
disease control rating PHI [1]: 0 (less than 50% disease control)
disease control rating AS (Alternaria solani): 0 (less than 50% disease control)
disease control rating EGT [2]: 2 (greater than 80% disease control)
disease control rating PO (Pyricularia oryzae): 0 (less than 50% disease control)
disease control rating EGP [3]: 2 (greater than 80% disease control)
disease control rating PVA (Plasmopara viticola): 0 (less than 50% disease control)
disease control rating RSI (Rhizoctonia solani): 0 (less than 50% disease control)

CCC(CC)NC1COC2(CCC(C(C)(C)C)CC2)C1 (stereo not shown) [Compound 83]
disease control rating LN (Leptosphaeria nodorum): 0 (less than 50% disease control)
disease control rating PIP (Phytophthora infestans): 0 (less than 50% disease control)
disease control rating VII (Venturia inaequalis): 0 (less than 50% disease control)
disease control rating BCB (Botrytis cinerea): 1 (about 50-80% disease control)
disease control rating PHI [1]: 0 (less than 50% disease control)
disease control rating AS (Alternaria solani): 0 (less than 50% disease control)
disease control rating EGT [2]: 2 (greater than 80% disease control)
disease control rating PO (Pyricularia oryzae): 0 (less than 50% disease control)
disease control rating EGP [3]: 2 (greater than 80% disease control)
disease control rating PVA (Plasmopara viticola): 0 (less than 50% disease control)
disease control rating RSI (Rhizoctonia solani): 0 (less than 50% disease control)
